Laboratory results from US10047084B2, “Imidazolone derivatives, pharmaceutical compositions and uses thereof” (BEIJING FORELANDPHARMA CO. LTD., priority 2013, dated 2018).

Tests used:
[1] = molecular target: PI3K-alpha (PIK3CA/PIK3R1) (Homo sapiens (Human), UniProt P42336); assay: PI3K-alpha enzyme activity assay (ADP Glo); format: biochemical; conditions: read-out: Activity of inhibiting PI3K enzyme IC50
Excerpt: 3. PI3K-alpha Enzyme Activity Assay: PI3K alpha-ADP Glo Assay was employed. In the determination of PI3K enzyme activity, the detection kit supplied by Promega (Promega, Cat #: V9101) was used to detect the inhibition effect of the compounds on the activity of PI3K enzyme. The adenosine diphosphate produced during the whole enzymic reactions was quantified. The resulting values were used to calculate the activity of PI3K (Table 1).
3.1 Detection reagents: PIK3CA/PIK3R1 purchased from Invitrogen (Cat #: PV4788): The active kinase was diluted with kinase diluent III; and mixed with bovine serum albumin (BSA) in a ratio of 1:4 (5×dilution). The final BSA concentration was 50 ng/ml; and the compositions of Kinase Detection Solution I were: 25 mM MOPS, pH7.2, 12.5 mM β-glycerophosphate, 25 mM magnesium chloride, 5 mM EGTA, and 2 mM EDTA. Before use, 0.25 mM DTT was added to Kinase Detection Solution I; 250 μM adenosine triphosphate (ATP) Detection solution: 0.55 mg of ATP was dissolved in 4 ml of Kinase Detection Solution I, subdivided in 200 μl/vial and stored at −20° C. Substrate: Phosphatidylinositol (4,5) bis-phosphate; this substrate was diluted with Kinase Detection Solution I to a concentration of 125 μM. Final concentrations were: 10 μM PIP2, 10 μM ATP, 1% DMSO, and 0.0005-10 μM compounds.
a) Experimental Procedure: • 3.2.1 50 μL of the compounds diluted with dimethyl sulfoxide (DMSO) at a concentration of 100 μM were added to the 384-well dilution plate. The compounds were diluted with dimethyl sulfo de (DMSO) in a ratio of 1:3 (10 dilution concentrations plus 1 zero concentration). • 3.2.2 5 μL of the diluted compounds were transferred to the corresponding 384-well black Proxi plate (containing 47.5 μL of detection solution/well), and shaked for several seconds. • 3.2.3 2 μL of 2.5×PI3K working solution was added to 384-well black Proxi plate. • 3.2.4 2 μL of the diluted compounds were added to the detection plate (3 wells for each concentration). • 3.2.5 The plate was incubated at room temperature for 2 h. • 3.2.6 5 μL of ADP Glo Reagent was added. • 3.2.7 The plate was incubated at room temperature for 40 minutes. • 3.2.8 10 μL of the kinase detection reagent was added. • 3.2.9 The plate was incubated at room temperature for 40 minutes. • 3.2.10 The activity was detected by using Envision Reader.
The inhibition of the mTOR […] activity by the compounds ranges in 0.5 to several hundreds nanomoles, see Table 1.

[2] = Pharmacokinetics after oral administration, Balb/c mice; format: in vivo; conditions: mouse, plasma, 10 mg/kg
Description: (§1) 4. […] Blood was sampled before the administration and at 0.25 h, 0.5 h, 1 h, 2 h, 4 h, 6 h, 8 h, and 24 h after the administration.

[3] = Pharmacokinetics after oral administration, SD rat; format: in vivo; conditions: plasma, 10 mg/kg
Description: as §1

Sequence of PI3K-alpha (PIK3CA/PIK3R1) (P42336 whole entry, looked up): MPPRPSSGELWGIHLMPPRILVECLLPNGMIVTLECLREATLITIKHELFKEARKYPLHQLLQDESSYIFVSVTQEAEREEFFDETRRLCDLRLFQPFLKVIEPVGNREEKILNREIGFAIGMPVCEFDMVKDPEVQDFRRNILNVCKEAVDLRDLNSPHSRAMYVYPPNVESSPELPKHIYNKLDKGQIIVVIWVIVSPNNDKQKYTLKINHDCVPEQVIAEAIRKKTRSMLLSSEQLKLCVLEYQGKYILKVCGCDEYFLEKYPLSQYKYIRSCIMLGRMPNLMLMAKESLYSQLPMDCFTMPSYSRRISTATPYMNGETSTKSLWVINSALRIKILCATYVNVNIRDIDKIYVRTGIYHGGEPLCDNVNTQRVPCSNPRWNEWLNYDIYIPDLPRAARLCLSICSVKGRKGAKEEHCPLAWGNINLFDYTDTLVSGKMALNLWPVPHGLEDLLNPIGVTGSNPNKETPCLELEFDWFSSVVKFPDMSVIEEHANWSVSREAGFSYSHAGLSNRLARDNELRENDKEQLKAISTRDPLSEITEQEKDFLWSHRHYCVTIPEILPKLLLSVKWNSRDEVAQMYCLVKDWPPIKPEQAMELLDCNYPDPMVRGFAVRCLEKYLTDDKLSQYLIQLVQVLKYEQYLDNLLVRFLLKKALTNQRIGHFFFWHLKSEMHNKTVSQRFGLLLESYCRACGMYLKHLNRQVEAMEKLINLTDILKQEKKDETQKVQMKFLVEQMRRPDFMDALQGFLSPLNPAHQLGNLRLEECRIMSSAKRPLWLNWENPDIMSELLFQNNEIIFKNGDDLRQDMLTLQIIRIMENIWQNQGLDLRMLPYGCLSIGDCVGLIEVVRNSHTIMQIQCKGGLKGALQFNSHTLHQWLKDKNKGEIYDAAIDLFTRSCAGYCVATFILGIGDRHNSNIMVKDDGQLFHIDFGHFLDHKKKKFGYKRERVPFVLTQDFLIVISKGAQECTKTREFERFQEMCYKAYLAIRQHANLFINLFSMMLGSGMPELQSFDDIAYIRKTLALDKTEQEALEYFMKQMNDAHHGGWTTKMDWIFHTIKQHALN
Sequence of PI3K-alpha (PIK3CA/PIK3R1) (P27986 whole entry partner, looked up): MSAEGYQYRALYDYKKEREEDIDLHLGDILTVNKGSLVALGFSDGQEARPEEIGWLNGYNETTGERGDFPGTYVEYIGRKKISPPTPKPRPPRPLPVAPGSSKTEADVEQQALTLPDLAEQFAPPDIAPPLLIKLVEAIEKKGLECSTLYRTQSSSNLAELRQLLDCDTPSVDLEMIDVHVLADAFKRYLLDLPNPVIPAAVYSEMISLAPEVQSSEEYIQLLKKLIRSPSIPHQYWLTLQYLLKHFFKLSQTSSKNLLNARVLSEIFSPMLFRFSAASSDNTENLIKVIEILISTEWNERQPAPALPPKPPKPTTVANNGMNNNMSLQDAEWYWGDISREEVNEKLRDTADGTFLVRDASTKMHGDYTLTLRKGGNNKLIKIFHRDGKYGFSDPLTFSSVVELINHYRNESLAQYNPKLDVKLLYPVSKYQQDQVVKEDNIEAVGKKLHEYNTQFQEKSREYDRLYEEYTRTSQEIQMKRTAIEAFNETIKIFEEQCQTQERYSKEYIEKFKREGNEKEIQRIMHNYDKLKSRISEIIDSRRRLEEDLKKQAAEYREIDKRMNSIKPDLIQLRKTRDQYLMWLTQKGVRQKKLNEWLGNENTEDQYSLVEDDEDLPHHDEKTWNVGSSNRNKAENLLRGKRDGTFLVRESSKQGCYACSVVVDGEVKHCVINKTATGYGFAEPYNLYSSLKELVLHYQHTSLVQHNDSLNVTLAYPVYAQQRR

| Compound | IC50 [1] [nM] | AUC [2] [ng·h/mL] | Cmax [2] [ng/mL] | half-life [2] [h] | concentration at 6 h ([2]; 6 h) [µM] | AUC [3] [ng·h/mL] | Cmax [3] [ng/mL] | half-life [3] [h] | concentration at 6 h [3] [µM] |
| --- | --- | --- | --- | --- | --- | --- | --- | --- | --- |
| Cn1cc(-c2ccc(-c3ccc4ncc5c(c4c3)n([C@H]3CC[C@@H](O)CC3)c(=O)n5C)cn2)cn1 [Example 18, 1-((1s,4s)-4-hydroxycyclohexyl)-3-methyl-8-(6-(1-methyl-1H-pyrazol-4-yl)pyridin-3-yl)-1H-imidazo[4,5-c]quinolin-2(3H)-one] | < 10 | 10000 to 100000 | 5000 to 10000 | 1 to 4 | 1 to 10 | – | – | – | – |
| Cn1cc(-c2ccc(-c3ccc4ncc5c(c4c3)n([C@@H]3CCCN(S(C)(=O)=O)C3)c(=O)n5C)cn2)cn1 [Example 31, (R)-3-methyl-8-(6-(1-methyl-1H-pyrazol-4-yl)pyridin-3-yl)-1-(1-(methanesulfonyl)piperidin-3-yl)-1H-imidazo[4,5-c]quinolin-2(3H)-one] | < 10 | – | – | – | – | 10000 to 100000 | 800 to 4000 | 4 to 10 | 1 to 10 |
| Cn1cc(-c2ccc(-c3ccc4ncc5c(c4c3)n(C3CCCN(S(C)(=O)=O)C3)c(=O)n5C)cn2)cn1 (stereo not shown) [Example 3, 3-methyl-8-(6-(1-methyl-1H-pyrazol-4-yl)pyridin-3-yl)-1-(1-(methanesulfonyl)piperidin-3-yl)-1H-imidazo[4,5-c]quinolin-2(3H)-one] | < 10 | – | – | – | – | – | – | – | – |
| Cn1cc(-c2ccc(-c3ccc4ncc5c(c4c3)n([C@H]3CCN(S(C)(=O)=O)C3)c(=O)n5C)cn2)cn1 [Example 28, (S)-3-methyl-8-(6-(1-methyl-1H-pyrazol-4-yl)pyridin-3-yl)-1-(1-(methanesulfonyl)pyrrolidin-3-yl)-1H-imidazo[4,5-c]quinolin-2(3H)-one] | < 10 | – | – | – | – | 10000 to 100000 | 800 to 4000 | 4 to 10 | 1 to 10 |
